These are literature values, as cited in patent US20140037570A1, “NBPT solution for preparing urease inhibited urea fertilizers prepared from N-alkyl; N, N-alkyl; and N-alkyl-N-alkoxy amino alcohols” (Whitehurst Associates Inc., priority 2012, published 2014).

SMILES strings stand for the structures.

The conditions of this series: background statement on NBPT.

As for `CCCCNP(N)(N)=S` [NBPT, N-(n-butyl)thiophosphoric triamide], the stability result is on record as “thermally unstable”.
